Among the data in patent US20260232658A1, “AZETIDINYL BENZOXAZOLE COMPOUNDS AND THEIR USE AS MER AND AXL INHIBITORS” (DONG-A ST CO., LTD., priority 2022, published 2026) are IC50 values, retold here.

SMILES strings stand for the structures. Bounds are passed on as bounds.

One test has as its target T1, human MER (528-end) (Homo sapiens, UniProt Q12866).
T1 construct: human MER (528-end); purchased Carnabio, Japan
T1 sequence (Q12866 528-999 limits assumed): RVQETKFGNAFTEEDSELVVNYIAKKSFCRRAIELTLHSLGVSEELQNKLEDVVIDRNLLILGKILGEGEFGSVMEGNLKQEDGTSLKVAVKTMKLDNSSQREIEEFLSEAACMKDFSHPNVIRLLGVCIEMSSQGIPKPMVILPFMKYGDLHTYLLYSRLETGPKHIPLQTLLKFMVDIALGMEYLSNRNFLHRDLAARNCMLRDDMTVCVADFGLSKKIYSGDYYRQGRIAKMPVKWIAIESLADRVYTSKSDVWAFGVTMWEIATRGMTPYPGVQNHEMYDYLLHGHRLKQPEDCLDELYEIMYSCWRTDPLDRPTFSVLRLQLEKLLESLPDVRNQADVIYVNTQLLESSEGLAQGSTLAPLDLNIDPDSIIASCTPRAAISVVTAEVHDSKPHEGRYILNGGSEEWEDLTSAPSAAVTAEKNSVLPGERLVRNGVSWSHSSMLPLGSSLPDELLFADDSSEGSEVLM
Description: HTRF kinase activity biochemical assay, MER.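 Also: phosphorylation of a biotin-tagged tyrosine kinase substrate detected by Eu3+-cryptate antibody and streptavidin-XL665 time-resolved fluorescence, read after 1 h at room temperature.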 As to conditions: recombinant kinase, 10 uM ATP, 30 minutes pre-incubation; read-out: HTRF MERTK IC50. On the technique in general: In TR-FRET formats the signal depends on donor and acceptor labels being close together.

The target in a further test is T2, TYRO3 (455-end) (Homo sapiens, UniProt Q06418).
T2 construct: TYRO3 (455-end); purchased SignalChem, Canada
T2 sequence (Q06418 455-890 limits assumed): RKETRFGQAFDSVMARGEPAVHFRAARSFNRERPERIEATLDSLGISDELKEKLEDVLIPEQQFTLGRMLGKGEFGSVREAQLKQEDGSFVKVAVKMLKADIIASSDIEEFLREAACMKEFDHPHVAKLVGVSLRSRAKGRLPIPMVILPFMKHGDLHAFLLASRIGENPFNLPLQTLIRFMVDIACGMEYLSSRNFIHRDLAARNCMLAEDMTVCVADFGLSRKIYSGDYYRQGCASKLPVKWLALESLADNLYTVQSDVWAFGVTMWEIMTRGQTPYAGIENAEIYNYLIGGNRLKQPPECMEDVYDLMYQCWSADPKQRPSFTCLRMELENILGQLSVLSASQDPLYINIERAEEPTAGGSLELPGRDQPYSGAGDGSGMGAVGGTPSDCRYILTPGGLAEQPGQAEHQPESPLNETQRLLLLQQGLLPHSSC
The test is described as follows: HTRF kinase activity biochemical assay, TYRO3.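 Also: biotinylated tyrosine kinase substrate phosphorylation detected via streptavidin-XL665 and Eu3+-cryptate anti-phospho antibody time-resolved fluorescence, read after 1 h detection at room temperature, 384-well format.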 As to conditions: recombinant kinase, 10 uM ATP, 30 minutes pre-incubation; read-out: HTRF TYRO IC50.

In the next test the target is T3, human AXL (473-end) (Homo sapiens, UniProt P30530).
T3 construct: human AXL (473-end); purchased SignalChem, Canada
T3 sequence (P30530 473-894 limits assumed): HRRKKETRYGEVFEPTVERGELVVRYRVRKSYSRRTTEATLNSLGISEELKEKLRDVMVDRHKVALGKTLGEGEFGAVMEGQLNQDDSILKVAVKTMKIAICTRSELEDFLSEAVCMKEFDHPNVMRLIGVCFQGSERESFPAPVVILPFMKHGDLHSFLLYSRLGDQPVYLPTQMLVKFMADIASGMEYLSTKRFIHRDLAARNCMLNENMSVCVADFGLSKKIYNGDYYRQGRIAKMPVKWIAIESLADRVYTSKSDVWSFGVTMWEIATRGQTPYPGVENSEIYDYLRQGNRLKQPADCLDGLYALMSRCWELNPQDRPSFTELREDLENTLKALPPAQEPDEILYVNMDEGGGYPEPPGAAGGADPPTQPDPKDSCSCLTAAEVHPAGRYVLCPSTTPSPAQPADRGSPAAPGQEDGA
Description: HTRF kinase activity biochemical assay, AXL.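 Also: phosphorylation of a biotinylated tyrosine kinase substrate detected via Eu3+-cryptate anti-TK antibody and streptavidin-XL665, fluorescence read after a 1 h incubation at room temperature.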 As to conditions: recombinant kinase, 10 uM ATP, 30 minutes pre-incubation; read-out: HTRF AXL IC50.

`COCCn1cc(Nc2ncc(C3CN(c4nc5ccccc5o4)C3)nc2C(N)=O)cn1` [Example 29, 6-[1-(1,3-benzoxazol-2-yl)azetidin-3-yl]-3-{[1-(2-methoxyethyl)-1H-pyrazol-4-yl]amino}pyrazine-2-carboxamide]: the results for the half-maximal inhibitory concentration (IC50) at human MER (528-end), on TYRO3 (455-end) and on human AXL (473-end) were 5 nM, 340 nM and 10 nM, respectively.
`CCOC(C)(C)c1ccc2nc(N3CC(c4cnc(Nc5cnn(C)c5)c(C(N)=O)n4)C3)oc2c1` [Example 101, 6-{1-[6-(2-ethoxypropan-2-yl)-1,3-benzoxazol-2-yl]azetidin-3-yl}-3-[(1-methyl-1H-pyrazol-4-yl)amino]pyrazine-2-carboxamide]: the IC50 at human MER (528-end) turned out to be 8 nM; on TYRO3 (455-end), 1490 nM; on human AXL (473-end) it was 12 nM.
For the compound `COC[C@H]1CCCN1C(=O)c1ccc2nc(N3CC(c4cnc(Nc5cnn(C)c5)c(C(N)=O)n4)C3)oc2c1` [Example 64, 6-(1-{6-[(2R)-2-(methoxymethyl)pyrrolidine-1-carbonyl]-1,3-benzoxazol-2-yl}azetidin-3-yl)-3-[(1-methyl-1H-pyrazol-4-yl)amino]pyrazine-2-carboxamide], the results for the IC50 on human MER (528-end), on TYRO3 (455-end) and on human AXL (473-end) were below 1 nM, 37 nM and 5 nM, respectively.
In the case of `Cn1cc(Nc2ncc(C3CN(c4nc5ccc(CCCO)cc5o4)C3)nc2C(N)=O)cn1` [Example 32, 6-{1-[6-(3-hydroxypropyl)-1,3-benzoxazol-2-yl]azetidin-3-yl}-3-[(1-methyl-1H-pyrazol-4-yl)amino]pyrazine-2-carboxamide], the results for the IC50 at human MER (528-end), at TYRO3 (455-end) and at human AXL (473-end) were 1 nM, 190 nM and 3 nM, respectively.
With `Cn1cc(Nc2ncc(C3CN(c4nc5ccc(OCC6CC(CO)C6)cc5o4)C3)nc2C(N)=O)cn1` (stereo not drawn) [Example 56, 6-[1-(6-{[3-(hydroxymethyl)cyclobutyl]methoxy}-1,3-benzoxazol-2-yl)azetidin-3-yl]-3-[(1-methyl-1H-pyrazol-4-yl)amino]pyrazine-2-carboxamide], the figures for the IC50 on human MER (528-end), on TYRO3 (455-end) and at human AXL (473-end) were below 1 nM, 92 nM and 2 nM, respectively.
Regarding `Cn1cc(Nc2ncc(C3CN(c4nc5ccc(OCC6COC(C)(C)OC6)cc5o4)C3)nc2C(N)=O)cn1` [Example 51A, 6-(1-{6-[(2,2-dimethyl-1,3-dioxan-5-yl)methoxy]-1,3-benzoxazol-2-yl}azetidin-3-yl)-3-[(1-methyl-1H-pyrazol-4-yl)amino]pyrazine-2-carboxamide], the IC50 at human MER (528-end) was determined as 2 nM; on TYRO3 (455-end), 2380 nM; on human AXL (473-end), 17 nM.
Turning to `Cn1cc(Nc2ncc(C3CN(c4nc5ccc(-c6cnn(C)c6)cc5o4)C3)nc2C(N)=O)cn1` [Example 92, 3-[(1-methyl-1H-pyrazol-4-yl)amino]-6-{1-[6-(1-methyl-1H-pyrazol-4-yl)-1,3-benzoxazol-2-yl]azetidin-3-yl}pyrazine-2-carboxamide], the half-maximal inhibitory concentration (IC50) is below 1 nM at human MER (528-end), 80 nM at TYRO3 (455-end) and 3 nM at human AXL (473-end).
On to `Cn1cc(Nc2ncc(C3CN(c4nc5ccc(/C=C/C(C)(C)O)cc5o4)C3)nc2C(N)=O)cn1` [Example 17, 6-(1-{6-[(1E)-3-hydroxy-3-methylbut-1-en-1-yl]-1,3-benzoxazol-2-yl}azetidin-3-yl)-3-[(1-methyl-1H-pyrazol-4-yl)amino]pyrazine-2-carboxamide], for which the half-maximal inhibitory concentration (IC50) on TYRO3 (455-end) amounted to 241 nM; at human AXL (473-end) it was 2 nM.
Turning to `Cn1cc(Nc2ncc(C3CN(c4nc5ccc(OCC(=O)O)cc5o4)C3)nc2C(N)=O)cn1` [Example 73A, {[2-(3-f{6-carbamoyl-5-[(1-methyl-1H-pyrazol-4-yl)amino]pyrazin-2-yl}azetidin-1-yl)-1,3-benzoxazol-6-yl]oxy}acetic acid], the IC50 at human MER (528-end) amounted to 150 nM; at human AXL (473-end), 210 nM.
As to `Cn1cc(Nc2ncc(C3CN(c4nc5ccc(O)cc5o4)C3)nc2C(N)=O)cn1` [Example 20, 6-[I1-(6-hydroxy-1,3-benzoxazol-2-yl)azetidin-3-yl]-3-[(1-methyl-1H-pyrazol-4-yl)amino]pyrazine-2-carboxamide], the IC50 was 29 nM at human MER (528-end) and 980 nM on TYRO3 (455-end).

Usually IC50 stands for the concentration that inhibits the measured activity by half.
